Experiments:
[1] = system: cofilin / phospho-PP2A association; experiment: co-immunoprecipitation of cofilin with phospho-PP2A (pY307) in pancreatic acini; assay type: cell-based, rat; settings: legend: kbNB 0.1 µM or PP2 10 µM, 3 h; CCK-8 100 nM, TPA 1 µM
Protocol: For co-immunoprecipitation, 600 μg of protein was incubated with 15 μL of the anti-cofilin antibody (Santa Cruz Biotechnology, Inc. Dallas, TX) and 25 μL of protein A/G agarose beads (Thermo-Fisher Scientific. Waltham, MA) overnight at 4°C under agitation. Samples were washed three times with lysis buffer, re-suspended in 12.5 μL of Sample Buffer, Laemlii 2x concentrate and boiled for 5 min before western blotting.
FIGURE 8 Effect of a PKD inhibitor, kbNB, or a Src inhibitor, PP2, on the ability of CCK-8 (100 nM) and TPA (1 µM) to stimulate the association of cofilin with either phospho-PP2A (A) or total PP2A (B). Isolated pancreatic acini were incubated in the absence or presence of kbNB (0.1 µM) or PP2 (10 µM) for 3 h and then incubated with no addition (control), CCK-8 (100 nM, 3 min) or TPA (1 μM, 5 min), and then lysed. Equal amounts of protein were co-immunoprecipitated with an anti-cofilin (Santa Cruz, SC-376476) and then subjected to Western blots using anti-pY307 PP2A and anti-PP2A. Bands were visualized using chemiluminescence and quantified by densitometry. Top: Results of a representative blot of four independent experiments are shown. Bottom: Means ± S.E. of at least 4 independent experiments. Results are expressed as % of basal stimulation of the control group. N.S., No significant.

[2] = system: cofilin (pS3) in rat pancreatic acini; experiment: cofilin activation (phospho-pS3 cofilin Western blot) in isolated rat pancreatic acini; assay type: cell-based; settings: for decrease of basal level of cofilin phosphorylation / inhibition of cofilin activation stimulated by CCK-8: calyculin A 1 nM or okadaic acid 10 nM; for reversal of cofilin dephosphorylation by CCK-8: Wortmannin 1 µM, LY294002 100 µM, SB202190 10 µM, U0126 10 µM, Y-27632 10 µM 1 h, SP600125 20 µM 3 h
Protocol: Pancreatic acini preparations were obtained by collagenase digestion as previously described ([Bissonnette et al., 1984]; [Sato et al., 1989]; [Ramos-Alvarez and Jensen, 2018]). After collagenase digestion, dispersed acini were preincubated with different inhibitors in standard incubation solution ([Ramos-Alvarez and Jensen, 2018]; [Ramos-Ãlvarez et al., 2020]) for 3 h at 37°C under conditions specific for PKD/PKC, Src, PI3K, MAPKs, SSH1, LIMK, cofilin, other phosphatases and PAK4 inhibitors, as described previously ([Ramos-Alvarez and Jensen, 2018]; [Ramos-Ãlvarez et al., 2020]). Isolated acini and CCK1-R/Panc-1 cells (M&M 2.2.1) were also preincubated with two SSH1 inhibitors, D3 (25 μM, 1 h) ([Li et al., 2015]) or SE (50 μM, 3 h for acini; 24 h for CCK1-R/Panc-1 cells) ([Lee et al., 2017]). After preincubation, 1 mL aliquots of dispersed acini were incubated at 37°C for 3–15 min with CCK-8 (0.3 nM or 100 nM), for 5–15 min with TPA (1 µM) or without stimulants, used as control. Cells were lysed in lysis buffer (50 mM Tris/HCl pH 7.5, 150 mM NaCl, 1% Triton X-100, 1% deoxycholate, 0.1% sodium azide, 1 mM EGTA, 0.4 mM EDTA, 0.2 mM sodium orthovanadate, 1 mM PMSF, and one protease inhibitor tablet per 10 mL). After sonication, lysates were centrifuged at 10,000×g for 15 min at 4°C and protein concentration was measured using the Bio-Rad protein assay reagent. Finally, cells were processed as below for Western blotting.
Both concentrations of CCK-8 were used because CCK-8 is reported to have different responses with physiological and supraphysiological concentrations contributing to physiological and pathophysiological processes such as pancreatitis ([Dufresne et al., 2006]).
Western blotting and immunoprecipitation were performed as described previously ([Ramos-Alvarez and Jensen, 2018]). Whole cell lysates were subjected to SDS-PAGE using 4%–20% Tris–Glycine gels. […] Finally, membranes were then washed again twice in blocking buffer for 4 min, twice in washing buffer for 4 min, incubated for 4 min with chemiluminescence detection reagents. The intensity of the protein bands was measured using GeneTools software from Syngene, which were assessed in the linear detection range.
All experiments were performed at least 3 times. Data are presented as mean ± SEM and were analyzed with the non-parametric Kruskal–Wallis analysis (data was not normally distributed) and the Dunn’s multiple comparison test using the GraphPad Prism 8.0 software. P values < 0.05 were considered significant.
(A) Isolated pancreatic acini were incubated in the absence or presence of CCK-8 (100 nM), carbachol (1 μM), bombesin (1 nM), secretin (1 nM) or VIP (1 nM) for 1 min and then lysed. (B) Isolated pancreatic acini were incubated in the absence or presence of CCK-8 and CCK-JMV (at the indicate concentrations) for 3 min and then lysed. Western blots were analyzed using anti-pS3 cofilin, which mediates the activation state of cofilin. Bands were visualized using chemiluminescence and quantified by densitometry.

[3] = system: PP2A / PP1; settings: low concentrations; ref Ishihara et al., 1989; Takai et al., 1992; Lutz et al., 1993; Schmidt et al., 1994; Walsh et al., 1997; cited from earlier work
Source text: (Figures 5, 6) In human T lymphocytes, neurons, the 293 T cell line (human embryonic kidney 293 cells) and HeLa cells, it is reported that activation of cofilin can occur due its dephosphorylation through the co-stimulation activation of accessory receptors (e.g.,.CD2, CD3 or CD28) by CD3xCD28 mAb, with Endothelin-1 (ET-1), and the Ca^2+ ionophore A23187, which is mediated by activation of serine protein phosphatases ([Ambach et al., 2000]; [Wang et al., 2005]; [Tam et al., 2019]). Therefore, to explores the possible role of the protein phosphatases PP1, PP2A, PP2B in CCK-8-induced activation ...

[4] = system: MEK2; settings: non ATP-competitive; reference not given; cited from earlier work
[5] = system: MEK1; settings: non ATP-competitive; reference not given; cited from earlier work
[6] = system: parotid acinar cells; parameters: method as in Tamaki and Yamashina, 2002; settings: ref Tamaki and Yamashina, 2002; cited from earlier work
[7] = system: PP2A; settings: cited from earlier work
Source text: (§1) Because our results differ from the general finding that the two major signaling cascades in other tissues mediating cofilin activity, which involve alterations in LIMK and/or SSH1 activity ([Wang et al., 2005]; [Spratley et al., 2011]; [Mizuno, 2013]; [Ohashi, 2015]; [Xu et al., 2021]), were not important in mediating CCK’s activation of cofilin in pancreatic acini, we explored the possible involvement of other phosphatases that have been reported to participate in cofilin activation in other tissues with other stimulants. The activation of the serine/threonine phosphatases type 1 (PP1) or ty ...

[8] = system: pancreas; parameters: method as in Waschulewski et al., 1996; settings: ref Waschulewski et al., 1996; cited from earlier work
[9] = system: cofilin in human T lymphocytes; settings: stimulated by CD2 or CD28; ref Ambach et al., 2000; cited from earlier work
Source text: as §1

[10] = system: JNK1-3; settings: reversible ATP-competitive; reference not given; cited from earlier work
Source text: (Figure 10) In various tissues with difference stimuli, cofilin dephosphorylation and activation, has been reported to be mediated by PI3K, ROCK and various MAPKs (p38, p44/42, JNK) ([Won et al., 2008]; [Duan et al., 2014]), therefore we assessed their possible role in CCK-8-stimulated cofilin activation. Previous studies have shown that, in pancreatic acini and/or other tissues, CCK-8 activates each of these signaling cascades ([Berna et al., 2009]; [Camello-Almaraz et al., 2009]; [Ramos-Alvarez and Jensen, 2018]; [Ramos-Ãlvarez et al., 2020]). In order to address the role of these signal cas ...

[11] = system: p38β; settings: reference not given; cited from earlier work
[12] = system: p38α; settings: reference not given; cited from earlier work
[13] = 3 h, CCK-8 0.3 and 100 nM 3 min

Compound: CN(C)CCCn1cc(C2=C(c3c[nH]c4ccccc34)C(=O)NC2=O)c2ccccc21 [GF109203X]
- inhibition of decrease in phospho-PP2A co-immunoprecipitation stimulated by CCK-8 and TPA [1]: completely inhibited
- effect on basal phosphorylation level of cofilin ([2]; GFX 5 µM, kbNB 0.1 µM or PP2 10 µM, 3 h, no stimulant): None of these inhibitors altered the basal phosphorylation level of cofilin
- reversal of cofilin dephosphorylation stimulated by CCK-8 and TPA ([2]; GFX 5 µM, kbNB 0.1 µM or PP2 10 µM, 3 h, CCK-8 100 nM 3 min, TPA 1 µM 5 min): completely reversed

Compound: COC[C@@H]([C@H](O)[C@H](O)C(=O)NCC[C@H](C)c1nc(/C=C/C[C@@H]2O[C@]3(C[C@@H](O)[C@@H]2C)O[C@H]([C@H](C[C@H](O)[C@H](C)[C@H](O)[C@H](C)/C=C(C)/C(C)=C/C=C/C(C)=C\C#N)OC)[C@H](OP(=O)(O)O)C3(C)C)co1)N(C)C [calyculin A]
- selectivity PP1/PP2A/PP2B [3]: inhibits equally PP1 and PP2A activity, but not PP2B
- decrease of basal level of cofilin phosphorylation ([2]; 3 h, no stimulant): 24%
- inhibition of cofilin activation stimulated by CCK-8 [2, 13]: completely inhibited

Compound: N#CC(=C(/N)Sc1ccccc1N)/C(C#N)=C(/N)Sc1ccccc1N [U0126]
- IC50 [4]: 58 nM
- IC50 [5]: 72 nM
- reversal of cofilin dephosphorylation by CCK-8 ([2]; CCK-8 0.3 and 100 nM 3 min): Only preincubation with the JNK inhibitor, SP600125 (Figure 10C), and the ROCK inhibitor, Y-27632, (Figure 10D), completely reversed cofilin dephosphorylation by CCK-8

Compound: C=C1[C@@H](O)[C@@H]2O[C@]3(CC[C@H](/C=C/[C@@H](C)[C@@H]4CC(C)=C[C@@]5(O[C@H](C[C@@](C)(O)C(=O)O)CC[C@H]5O)O4)O3)CC[C@H]2O[C@@H]1[C@@H](O)C[C@H](C)[C@H]1O[C@@]2(CCCCO2)CC[C@H]1C [okadaic acid]
- effect on amylase release in parotid acinar cells [6]: disrupted amylase release in parotid acinar cells
- greater inhibitory effect on PP2A over PP1 [3]: 50-250 fold
- phosphatase selectivity in pancreatic acini ([7]; nanomolar concentrations, pancreatic acini, ref Wagner et al., 1992): only inhibit PP2A
- IC50 ([7]; pancreatic acinar cells, ref Lutz et al., 1993, read-out: IC50, CCK1R-stimulated phosphatase activity (PP2A) in cytosol of pancreatic acinar cells): 0.2 nM
- decrease of basal level of cofilin phosphorylation ([2]; 3 h, no stimulant): 12%
- inhibition of cofilin activation stimulated by CCK-8 [2, 13]: completely inhibited
- effect on stimulated enzyme secretion in pancreas [8]: completely blocked stimulated enzyme secretion in pancreas

Compound: C=CC[C@@H]1/C=C(\C)C[C@H](C)C[C@H](OC)[C@H]2O[C@@](O)(C(=O)C(=O)N3CCCC[C@H]3C(=O)O[C@H](/C(C)=C/[C@@H]3CC[C@@H](O)[C@H](OC)C3)[C@H](C)[C@@H](O)CC1=O)[C@H](C)C[C@@H]2OC [FK-506]
- effect on dephosphorylation of cofilin in human T lymphocytes [9]: did not affect the dephosphorylation of cofilin in human T lymphocytes
- effect on CCK-8 or TPA's activation of cofilin ([2]; FK-506 10 µM 3 h, CCK-8 0.3 and 100 nM 3 min, TPA 1 µM 5 min): had no effect

Compound: Oc1c2ccccc2c2c3c(cccc13)N=N2 [SP600125]
- reversal of cofilin dephosphorylation by CCK-8 ([2]; CCK-8 0.3 and 100 nM 3 min): completely reversed
- IC50 [10]: 110 nM

Compound: Oc1ccc(-c2nc(-c3ccncc3)c(-c3ccc(F)cc3)[nH]2)cc1 [SB202190]
- reversal of cofilin dephosphorylation by CCK-8 ([2]; CCK-8 0.3 and 100 nM 3 min): not PI3K or p38

Source: PMC10149936, “Cofilin activation in pancreatic acinar cells plays a pivotal convergent role for mediating CCK-stimulated enzyme secretion and growth” (Frontiers in Physiology, 2023)
